According to patent US6403112B2, “Ectoin and ectoin derivatives as moisturizers in cosmetics” (Merck Patent Gesellschaft mit beschrankter, priority 1993, dated 2002):

Assay: Water absorption capacity at 65% relative atmospheric humidity
Format: physicochemical
Details: relative atmospheric humidity of 65%; 1 g of anhydrous substance kept in sealed chamber until weight is constant
Experimental: A) Water absorption capacity The water absorption capacity of the compound of Example 1 is determined at a relative atmospheric humidity of 65%. The control substances used are in each case glycerol and propylene glycol. In each case 1 g of the anhydrous substance is kept in a sealed chamber until the weight is constant. The water absorption capacity is calculated as follows: [formula] Ectoin has a water absorption of 25% and, in comparison with glycerol or propylene glycol (60 and 45%, respectively) a less pronounced hygroscopic behavior. However, with regard to its use as a moisturizer, the dehydrating effect known from unduly high glycerol concentrations can be ruled out.

Going from CC1=N[C@H](C(=O)O)CCN1 [Ectoin, (S)-1,4,5,6-tetrahydro-2-methyl-4-pyrimidinecarboxylic acid] to CC(O)CO (stereo not drawn) [propylene glycol], the water absorption rises from 25% to 45%.

OCC(O)CO [glycerol] gave a water absorption of 60%.
